One series concerns Klebsiella aerogenes. Put plainly: Antibiotic activity in arbitrary units. It counts as cell-based. As for the experimental part: The material produced above was arbitrarily assigned an activity of 340 l/ml. Assays were determined as described in Description 3.
In another series the test system is dopa decarboxylase. Briefly: Enzyme inhibition (selectivity). Format: biochemical. The settings on record: at concentrations in excess of those required to inhibit the β-lactamase of E. coli.
The subject of series [1] is β-lactamases produced by Escherichia coli, Klebsiella aerogenes and Staphylococcus aureus. Put plainly: Inhibition of β-lactamases of various species. It counts as biochemical.
In a further series the test system is urease. Briefly: Enzyme inhibition (selectivity). It counts as biochemical. The settings on record: at concentrations in excess of those required to inhibit the β-lactamase of E. coli.
For the next series, the system named is carbonic anhydrase. Briefly: Enzyme inhibition (selectivity). The settings on record: at concentrations in excess of those required to inhibit the β-lactamase of E. coli. It counts as biochemical.
The subject of a further series is monoamine oxidase. Briefly: Enzyme inhibition (selectivity). Format: biochemical. The conditions noted are these: at concentrations in excess of those required to inhibit the β-lactamase of E. coli.
Another series concerns chymotrypsin. Briefly: Enzyme inhibition (selectivity). It counts as biochemical. The conditions noted are these: at concentrations in excess of those required to inhibit the β-lactamase of E. coli.
The test system of another series is tyrpsin. Briefly: Enzyme inhibition (selectivity). It counts as biochemical. The settings on record: at concentrations in excess of those required to inhibit the β-lactamase of E. coli.
A further series is described as follows: Stability. Format: physicochemical. The settings on record: unsalted acid form.

Where a name gives a salt, the structure may show the parent alone.

Consider `CC(=O)N/C=C/SC1=C(C(=O)O)N2C(=O)C(C(C)OS(=O)(=O)O)C2C1` (stereo not shown) [di-sodium salt of MM 13902], for which the activity in the series with Klebsiella aerogenes (yellowish powder after cellulose chromatography) is given as 73,000 units/mg.

As to `CC(=O)N/C=C/[S+]([O-])C1=C(C(=O)O)N2C(=O)C(C(C)OS(=O)(=O)O)C2C1` (stereo not shown) [MM 4550A], the enzyme inhibition entry in the series on dopa decarboxylase, with urease, with carbonic anhydrase, with monoamine oxidase, in the series with chymotrypsin and with tyrpsin was “does not inhibit” throughout. Besides, the “enzyme inhibitory activity against β-lactamases” value in [1] is listed as “possesses enzyme inhibitory activity”.

As to `CC(=O)N/C=C/SC1=C(C(=O)O)N2C(=O)C(C(C)OS(=O)(=O)O)C2C1` (stereo not shown) [MM 13902], the activity in the series with Klebsiella aerogenes (partially purified salt, after XAD 4) is listed as 37,000 units/mg. Further, the stability result in “Stability” is listed as “tends to be unstable”.
